Test results taken from patent publication US6743798B1, “Substituted pyrazole derivatives condensed with six-membered heterocyclic rings” (Bayer Aktiengesellschaft, priority 1998, dated 2004).
Read-outs that look alike come from different tables or passages of the source. Each block holds one compound with its values, some of them ahead of it.

Tests used:
[1] = tested on: soluble guanylate cyclase; test: Stimulation of soluble guanylate cyclase in primary endothelial cells; format: cell-based, pig; conditions: for Increase in the cGMP concentration (%): test substances final concentration 1 μM, 10 minutes, primary endothelial cells from pig aortas
Experimental: Primary endothelial cells were isolated from pig aortas by treatment with collagenase soln. The cells were then cultured in culture medium at 37 °C/5% CO2 until confluence was reached. For the investigations, the cells were passaged, inoculated into 24-well cell culture plates and subcultured until reaching confluence (˜2×10^5 cells/well). For the stimulation of endothelial guanylate cyclase, the culture medium was aspirated and the cells were washed once with Ringer solution. After removing the Ringer solution, the cells were incubated for 10 minutes at 37° C./5% CO2 in stimulation buffer with or without NO donor (sodium nitroprusside, SNP or DEA/NO 1 μM). […] After the incubation time had ended, the buffer solution was aspirated and cold buffer at 4° C. was added to the cells. The cells were then lysed at −20° C. for 16 hours. The supernatants containing the intracellular cGMP were then removed and the cGMP concentration was determined by means of the cGMP-SPA system (Amersham Buchler, Brunswick).

[2] = tested on: rabbit aortal rings preconcentrated with phenylephrine; test: Vasorelaxant action in vitro; format: cell-based; conditions: Oryctolagus cuniculus, read-out: IC50 [μM] vasorelaxant action
Experimental: (§1) To determine the cardiovascular action, the following investigations were carried out: In in vitro investigations on the isolated and on cells of vascular origin, the effect on guanylate cyclase-dependent cGMP formation was tested with and without NO donor. The anti-aggregatory properties were shown on human platelets stimulated with collagen. The vasorelaxant action was determined in rabbit aortal rings preconcentrated with phenylephrine. The hypotensive action was investigated in anaesthetized and awake rats.
Rabbits are anaesthetized by a blow to the neck and exanguinated. The aorta is removed, freed from adhering tissue, divided into 1.5 mm wide rings and individually transferred under a pretension into 5 ml organ baths containing a warm, carbogen-aerated Krebs-Henseleit solution at 37° C. of the following composition (mM): NaCl: 119; KCl: 4.8; CaCl2×2H2O: 1; MgSO4×7H2O; 1.4; KH2PO4: 1.2; NaHCO3: 25; glucose: 10. The contractility is detected using Statham UC2 cells, amplified and digitalized by means of A/D converters (DAS-1802 HC, Keithley Instruments Munich), and recorded in parallel on linear recorders. To produce a contraction, phenylephrin is added to the bath cumulatively in increasing concentration. […]

[3] = tested on: human platelets stimulated with collagen; test: Inhibition of platelet aggregation in vitro; format: cell-based; conditions: 10 min, collagen-induced aggregation, 10 min incubation at 37° C.
Experimental: as §1
To determine the platelet-aggregation, blood from healthy volunteers of both sexes was used. As an anticoagulant, 9 parts of blood were admixed to one part of 3.8% strength sodium citrate solution. The blood was centrifuged at 900 rpm for 20 min. The pH of the platelet-rich plasma obtained was adjusted to pH 6.5 using ACD solution (sodium citrate/citric acid/glucose). The platelets were subsequently centrifuged off and resuspended in buffer and once more centrifuged off. The platelet pellet was suspended in buffer and mixed with an additional 2 mmol/l of CaCl2.
To measure the aggregation, aliquots of the platelet suspension were incubated with the substance to be tested at 37° C. for 10 min.

anaesthetized rats = test: Blood pressure measurements in anaesthetized rats; format: in vivo, rat
Experimental: Male Wister rats having a bodyweight of 300-350 g are anaesthetized with Thiopental (100 mg/kg i.p.). After tracheotomy, a catheter is inserted into the femoral artery for blood pressure measurement. The substances to be tested are administered orally in Transcutol, Cremophor EL, H2O (10%/20%/70%) in a volume of 1 ml/kg.

melting point: 181 °C
SMILES: Nc1nc(-c2nn(Cc3ccccc3F)c3ncccc23)ncc1CC(F)(F)F [Example 8]

melting point: 215 °C
SMILES: NC(=O)c1cnc(-c2nn(Cc3ccccc3F)c3ncccc23)nc1N [Example 6]
Increase in the cGMP concentration (%) [1]: 600%

The next lines start with the compound.

SMILES: CS(=O)(=O)c1cnc(-c2nn(Cc3ccccc3F)c3ncccc23)nc1N [Example 1, 3-(4-Amino-5-methylsulphonylpyrimidin-2-yl)-1-(2-fluorobenzyl)-1H-pyrazolo[3,4-b]pyridine]
IC50 ([2]; rabbit aorta rings, phenylephrin contraction reduced by 50%): 0.23 µM | Increase in the cGMP concentration (%) [1]: >1000%

SMILES: Nc1nc(-c2nn(Cc3ccccc3F)c3ncccc23)nc(N)c1N1CCOCC1 [Example 16, 3-(4,6-Diamino-5-N-morpholinopyrimidin-2-yl)-1-(2-fluorobenzyl)-1H-pyrazolo[3,4-b]pyridine]
IC50 [2]: 0.2 µM | IC50 [3]: 0.06 µM | cGMP (pmol/well) ([1]; Ex. 16 0.1 μM): 5.1 pmol/well | cGMP (pmol/well) ([1]; Ex. 16 0.3 μM): 13.2 pmol/well | cGMP (pmol/well) ([1]; Ex. 16 1.0 μM): 20.8 pmol/well | cGMP (pmol/well) ([1]; Ex. 16 3.0 μM): 34.5 pmol/well | cGMP (pmol/well) ([1]; Ex. 16 10 μM): 47.7 pmol/well | max. reduction in blood pressure (mm Hg) (anaesthetized rats; 0.3 mg/kg p.o.): 21 mm Hg | max. reduction in blood pressure (mm Hg) (anaesthetized rats; 1.0 mg/kg p.o.): 35 mm Hg

SMILES: Cc1ccc(-c2nc(-c3nn(Cc4ccccc4F)c4ncccc34)ncc2C#N)cc1 [Example 14, 3-[5-Cyano-4-(4-methylphenyl)pyrimidin-2-yl]-1-(2-fluorobenzyl)-1H-pyrazolo[3,4-b]pyridine]
Increase in the cGMP concentration (%) [1]: >1000%
